Data published in US8889712B2, “IAP antagonists” (Bristol-Myers Squibb Company, priority 2012, dated 2014).
Where two headings read alike, the source gives them in different places.

Key:
[1] = molecular target: T1, XIAP BIR3 (Homo sapiens, UniProt P98170); test: XIAP-BIR3/SMAC Homogeneous Time Resolved Fluorescence (HTRF) Assay; assay type: binding
T1 construct: His-BIR3 (241-356, XIAP)
Summary of the method: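 Competition HTRF between XIAP-BIR3 and SMAC; reaction 60 min at room temperature, then anti-6×His-terbium Fab detection for a further 30 min.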

[2] = molecular target: T2, XIAP BIR2-3 (Homo sapiens, UniProt P98170, C202A/C213G); test: XIAP-BIR2-3 dimeric SMAC Peptide Homogeneous Time Resolved Fluorescence (HTRF) Assay; assay type: binding
T2 construct: His-BIR2-3 (125-356, C202A/C213G, XIAP)
Description: B. […] Assays were performed in black, flat-bottom, 384-well plates. […] Compounds were dissolved at 3 mM in dimethylsulfoxide (DMSO) and evaluated at eleven serially diluted concentrations. IC50 and Ki values were derived by non-linear regression analysis.

[3] = 1 nM N-His-BIR3 (241-356, XIAP), 5 nM fluorescein labeled SMAC peptide, HTRF signal, read-out: XIAP BIR3 IC50
[4] = 0.5 nM N-His-BIR2-3 (125-356, C202A/C213G, XIAP), 20 nM fluorescein labeled dimeric SMAC peptide, HTRF signal, read-out: XIAP BIR2-3 IC50

T1 sequence (P98170 241-356): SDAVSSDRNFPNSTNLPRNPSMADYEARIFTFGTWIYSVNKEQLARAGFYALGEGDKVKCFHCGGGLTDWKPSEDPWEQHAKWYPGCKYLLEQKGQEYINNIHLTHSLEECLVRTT
T2 sequence (P98170 125-356 C202A/C213G): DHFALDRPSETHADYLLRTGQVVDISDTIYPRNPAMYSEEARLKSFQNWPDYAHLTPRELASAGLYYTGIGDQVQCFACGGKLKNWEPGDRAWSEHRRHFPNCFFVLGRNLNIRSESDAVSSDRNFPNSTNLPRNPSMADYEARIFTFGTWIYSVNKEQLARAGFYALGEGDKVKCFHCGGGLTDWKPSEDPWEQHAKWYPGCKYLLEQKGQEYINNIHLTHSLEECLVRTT

Row | SMILES | IC50 [1, 3] [nM] | IC50 [2, 4] [nM] | IC50 [1] [nM] | IC50 [2] [nM]
1 | CN[C@@H](C)C(=O)N[C@H](C(=O)N1Cc2cc([C@H]3C[C@@H](C(=O)N[C@@H](Cc4ccc5ccccc5c4)C(=O)OC)N(C(=O)[C@@H](NC(=O)[C@H](C)NC)C(C)(C)C)C3)ccc2C[C@H]1C(=O)N[C@@H](Cc1ccc2ccccc2c1)C(=O)OC)C(C)(C)C [Example 82, (S)-Methyl 2-((2S,4R)-1-((S)-3,3-dimethyl-2-((S)-2-(methylamino)propanamido)butanoyl)-4-((S)-2-((S)-3,3-dimethyl-2-((S)-2-(methylamino)propanamido)butanoyl)-3-(((S)-1-methoxy-3-(naphthalen-2-yl)-1-oxopropan-2-yl)carbamoyl)-1,2,3,4-tetrahydroisoquinolin-7-yl)pyrrolidine-2-carboxamido)-3-(naphthalen-2-yl)propanoate] | 111 | 68.2 |  | 
2 | CN[C@@H](C)C(=O)N[C@H](C(=O)N1Cc2cc([C@H]3C[C@@H](C(=O)N[C@@H](Cc4ccccc4)C(=O)OC)N(C(=O)[C@@H](NC(=O)[C@H](C)NC)C(C)(C)C)C3)ccc2C[C@H]1C(=O)N[C@@H](Cc1ccccc1)C(=O)OC)C(C)(C)C [Example 85, (S)-Methyl 2-((2S,4R)-1-((S)-3,3-dimethyl-2-((S)-2-(methylamino)propanamido)butanoyl)-4-((S)-2-((S)-3,3-dimethyl-2-((S)-2-(methylamino)propanamido)butanoyl)-3-(((S)-1-methoxy-1-oxo-3-phenylpropan-2-yl)carbamoyl)-1,2,3,4-tetrahydroisoquinolin-7-yl)pyrrolidine-2-carboxamido)-3-phenylpropanoate] |  |  | 14.8 | 6.2
3 | CN[C@@H](C)C(=O)N[C@H](C(=O)N1Cc2cc(N[C@H]3C[C@@H](C(=O)N[C@@H]4CCCc5ccccc54)N(C(=O)[C@@H](NC(=O)[C@H](C)NC)C(C)(C)C)C3)ccc2C[C@H]1C(=O)N[C@@H]1CCCc2ccccc21)C(C)(C)C [Example 20, (S)-2-((S)-3,3-Dimethyl-2-((S)-2-(methylamino)propanamido)butanoyl)-7-(((3S,5S)-1-((S)-3,3-dimethyl-2-((S)-2-(methylamino)propanamido)butanoyl)-5-(((R)-1,2,3,4-tetrahydronaphthalen-1-yl)carbamoyl)pyrrolidin-3-yl)amino)-N—((R)-1,2,3,4-tetrahydronaphthalen-1-yl)-1,2,3,4-tetrahydroisoquinoline-3-carboxamide] |  |  | 13 | 3
4 | CN[C@@H](C)C(=O)N[C@H](C(=O)N1Cc2cc(O[C@H]3C[C@@H](C(=O)N[C@@H]4CCCc5ccccc54)N(C(=O)[C@@H](NC(=O)[C@H](C)NC)C(C)(C)C)C3)ccc2C[C@H]1C(=O)N[C@@H]1CCCc2ccccc21)C(C)(C)C [Example 21, (S)-2-((S)-3,3-Dimethyl-2-((S)-2-(methylamino)propanamido)butanoyl)-7-(((3S,5S)-1-((S)-3,3-dimethyl-2-((S)-2-(methylamino)propanamido)butanoyl)-5-(((R)-1,2,3,4-tetrahydronaphthalen-1-yl)carbamoyl)pyrrolidin-3-yl)oxy)-N—((R)-1,2,3,4-tetrahydronaphthalen-1-yl)-1,2,3,4-tetrahydroisoquinoline-3-carboxamide] |  |  | 30 | 3
5 | CCN(CC)C(=O)[C@H](Cc1ccccc1)NC(=O)[C@@H]1C[C@H](c2ccc3c(c2)CN(C(=O)[C@@H](NC(=O)[C@H](C)NC)C(C)(C)C)[C@H](C(=O)N[C@@H]2CCCc4ccccc42)C3)CN1C(=O)[C@@H](NC(=O)[C@H](C)NC)C(C)(C)C [Example 62, (S)-7-((3R,5S)-5-(((S)-1-(Diethylamino)-1-oxo-3-phenylpropan-2-yl)carbamoyl)-1-((S)-3,3-dimethyl-2-((S)-2-(methylamino)propanamido)butanoyl)pyrrolidin-3-yl)-2-((S)-3,3-dimethyl-2-((S)-2-(methylamino)propanamido)butanoyl)-N-((R)-1,2,3,4-tetrahydronaphthalen-1-yl)-1,2,3,4-tetrahydroisoquinoline-3-carboxamide] |  |  | 9.2 | 1.9

Continued, in another order:

Row | IC50 [1, 3] [nM] | IC50 [2, 4] [nM] | SMILES | IC50 [1] [nM] | IC50 [2] [nM]
6 | 3.4 | 1.2 | CN[C@@H](C)C(=O)N[C@H](C(=O)N1C[C@@H](c2ccc3c(c2)CN(C(=O)[C@@H](NC(=O)[C@H](C)NC)C(C)(C)C)[C@H](C(=O)N[C@@H]2CCCc4ccccc42)C3)C[C@H]1C(=O)N[C@@H](Cc1ccccc1)C(=O)Nc1nncs1)C(C)(C)C [Example 52, (S)-7-((3R,5S)-5-(((S)-1-((1,3,4-Thiadiazol-2-yl)amino)-1-oxo-3-phenylpropan-2-yl)carbamoyl)-1-((S)-3,3-dimethyl-2-((S)-2-(methylamino)propanamido)butanoyl)pyrrolidin-3-yl)-2-((S)-3,3-dimethyl-2-((S)-2-(methylamino)propanamido)butanoyl)-N-((R)-1,2,3,4-tetrahydronaphthalen-1-yl)-1,2,3,4-tetrahydroisoquinoline-3-carboxamide] |  | 
7 | 4 | 3 | CN[C@@H](C)C(=O)N[C@H](C(=O)N1Cc2ccc(C(=O)N[C@H]3C[C@@H](C(=O)N[C@@H]4CCCc5ccccc54)N(C(=O)[C@@H](NC(=O)[C@H](C)NC)C(C)(C)C)C3)cc2C[C@H]1C(=O)N[C@@H]1CCCc2ccccc21)C(C)(C)C [Example 25, (S)-2-((S)-3,3-Dimethyl-2-((S)-2-(methylamino)propanamido)butanoyl)-N6-((3S,5S)-1-((S)-3,3-dimethyl-2-((S)-2-(methylamino)propanamido)butanoyl)-5-(((R)-1,2,3,4-tetrahydronaphthalen-1-yl)carbamoyl)pyrrolidin-3-yl)-N^3—((R)-1,2,3,4-tetrahydronaphthalen-1-yl)-1,2,3,4-tetrahydroisoquinoline-3,6-dicarboxamide] |  | 
8 | 6.8 | 2.9 | CN[C@@H](C)C(=O)N[C@H](C(=O)N1C[C@@H](c2ccc3c(c2)CN(C(=O)[C@@H](NC(=O)[C@H](C)NC)C(C)(C)C)[C@H](C(=O)N[C@@H]2CCCc4ccccc42)C3)C[C@H]1C(=O)N[C@@H](Cc1ccccc1)C(=O)N(C)CCc1ccccn1)C(C)(C)C [Example 54, (S)-2-((S)-3,3-Dimethyl-2-((S)-2-(methylamino)propanamido)butanoyl)-7-((3R,5S)-1-((S)-3,3-dimethyl-2-((S)-2-(methylamino)propanamido)butanoyl)-5-(((S)-1-(methyl(2-(pyridin-2-yl)ethyl)amino)-1-oxo-3-phenylpropan-2-yl)carbamoyl)pyrrolidin-3-yl)-N-((R)-1,2,3,4-tetrahydronaphthalen-1-yl)-1,2,3,4-tetrahydroisoquinoline-3-carboxamide] |  | 
9 | 3.3 | 1.7 | CN[C@@H](C)C(=O)N[C@H](C(=O)N1Cc2cc([C@H]3C[C@@H](C(=O)N[C@@H]4CCCc5ccccc54)N(C(=O)[C@@H](NC(=O)[C@H](C)NC)C(C)(C)C)C3)ccc2C[C@H]1C(=O)N[C@@H](CO)c1ccccc1F)C(C)(C)C [Example 36, (S)-2-((S)-3,3-Dimethyl-2-((S)-2-(methylamino)propanamido)butanoyl)-7-((3R,5S)-1-((S)-3,3-dimethyl-2-((S)-2-(methylamino)propanamido)butanoyl)-5-(((R)-1,2,3,4-tetrahydronaphthalen-1-yl)carbamoyl)pyrrolidin-3-yl)-N-((R)-1-(2-fluorophenyl)-2-hydroxyethyl)-1,2,3,4-tetrahydroisoquinoline-3-carboxamide] |  | 
